Laboratory results reported in the supplement of paper PMC10883282.

Assays:
Assay in all cases: relative viability vs DMSO control (72 h) (fraction); higher = more viable cells
[1] = test system: SW872
How it was run: (§1)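 Sarcoma cell lines in 384-well plates, seeded to reach 80–90% confluence, were given compound after 24 h and kept 72 h at 37 °C, 5% CO2, with 0.1% DMSO vehicle and a 5 µM positive control. Relative viability came from ATPLite as percent growth, averaged over up to triplicate wells. On the rescaled values, 1 equals full and 0 equals none.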

[2] = test system: VA-ES-BJ
How it was run: as §1

[3] = test system: SW684
How it was run: as §1

[4] = test system: KHOS-NP
How it was run: as §1

[5] = test system: RD
How it was run: as §1

[6] = test system: RD-ES
How it was run: as §1

[7] = test system: MES-SA
How it was run: as §1

[8] = test system: G401
How it was run: as §1

[9] = test system: HT1080
How it was run: as §1

[10] = test system: SW1353
How it was run: as §1

[11] = test system: SK-ES-1
How it was run: as §1

[12] = test system: SK-LMS-1
How it was run: as §1

Cn1ncnc1[C@H]1c2n[nH]c(=O)c3cc(F)cc(c23)N[C@@H]1c1ccc(F)cc1 [Talazoparib]
Details	relative viability
[1], 0.00017 µM	1.02
[1], 0.00051 µM	1.04
[1], 0.00152 µM	1.04
[1], 0.00457 µM	1.01
[1], 0.01372 µM	0.99
[1], 0.04115 µM	0.971
[1], 0.1235 µM	0.905
[1], 0.3704 µM	0.799
[1], 1.111 µM	0.628
[1], 3.333 µM	0.441
[1], 10 µM	0.34
[2], 0.00017 µM	1.01
[2], 0.00051 µM	1.01
[2], 0.00152 µM	1.01
[2], 0.00457 µM	0.955
[2], 0.01372 µM	0.926
[2], 0.04115 µM	0.849
[2], 0.1235 µM	0.738
[2], 0.3704 µM	0.601
[2], 1.111 µM	0.406
[2], 3.333 µM	0.225
[2], 10 µM	0.163
[3], 0.00017 µM	0.965
[3], 0.00051 µM	1.01
[3], 0.00152 µM	0.988
[3], 0.00457 µM	1.05
[3], 0.01372 µM	0.986
[3], 0.04115 µM	0.969
[3], 0.1235 µM	0.963
[3], 0.3704 µM	0.932
[3], 1.111 µM	0.893
[3], 3.333 µM	0.875
[3], 10 µM	0.865
[4], 0.00017 µM	1.02
[4], 0.00051 µM	1.04
[4], 0.00152 µM	1.03
[4], 0.00457 µM	1.04
[4], 0.01372 µM	1.02
[4], 0.04115 µM	1.01
[4], 0.1235 µM	1
[4], 0.3704 µM	0.968
[4], 1.111 µM	0.837
[4], 3.333 µM	0.675
[4], 10 µM	0.607
[5], 0.00017 µM	0.904
[5], 0.00051 µM	0.945
[5], 0.00152 µM	0.923
[5], 0.00457 µM	0.869
[5], 0.01372 µM	0.842
[5], 0.04115 µM	0.789
[5], 0.1235 µM	0.72
[5], 0.3704 µM	0.718
[5], 1.111 µM	0.629
[5], 3.333 µM	0.586
[5], 10 µM	0.577
[6], 0.00017 µM	0.976
[6], 0.00051 µM	0.95
[6], 0.00152 µM	0.904
[6], 0.00457 µM	0.844
[6], 0.01372 µM	0.609
[6], 0.04115 µM	0.191
[6], 0.1235 µM	0.0431
[6], 0.3704 µM	0.0199
[6], 1.111 µM	0.0127
[6], 3.333 µM	0.00913
[6], 10 µM	0.0143
[7], 0.00017 µM	0.972
[7], 0.00051 µM	0.975
[7], 0.00152 µM	0.945
[7], 0.00457 µM	0.901
[7], 0.01372 µM	0.768
[7], 0.04115 µM	0.678
[7], 0.1235 µM	0.555
[7], 0.3704 µM	0.478
[7], 1.111 µM	0.392
[7], 3.333 µM	0.351
[7], 10 µM	0.314
[8], 0.00017 µM	0.95
[8], 0.00051 µM	1.02
[8], 0.00152 µM	0.935
[8], 0.00457 µM	0.937
[8], 0.01372 µM	0.881
[8], 0.04115 µM	0.813
[8], 0.1235 µM	0.764
[8], 0.3704 µM	0.716
[8], 1.111 µM	0.663
[8], 3.333 µM	0.613
[8], 10 µM	0.555
[9], 0.00017 µM	1.06
[9], 0.00051 µM	1.05
[9], 0.00152 µM	1.05
[9], 0.00457 µM	1.037
[9], 0.01372 µM	1
[9], 0.04115 µM	0.955
[9], 0.1235 µM	0.8497
[9], 0.3704 µM	0.797
[9], 1.111 µM	0.662
[9], 3.333 µM	0.577
[9], 10 µM	0.554
[10], 0.00017 µM	1.06
[10], 0.00051 µM	1.09
[10], 0.00152 µM	1.07
[10], 0.00457 µM	1.03
[10], 0.01372 µM	0.999
[10], 0.04115 µM	0.919
[10], 0.1235 µM	0.889
[10], 0.3704 µM	0.814
[10], 1.111 µM	0.753
[10], 3.333 µM	0.679
[10], 10 µM	0.633
[11], 0.00017 µM	0.961
[11], 0.00051 µM	0.9
[11], 0.00152 µM	0.825
[11], 0.00457 µM	0.614
[11], 0.01372 µM	0.33
[11], 0.04115 µM	0.173
[11], 0.1235 µM	0.109
[11], 0.3704 µM	0.0754
[11], 1.111 µM	0.0494
[11], 3.333 µM	0.0309
[11], 10 µM	0.0277
[12], 0.00017 µM	1.01
[12], 0.00051 µM	1.05
[12], 0.00152 µM	0.999
[12], 0.00457 µM	0.999
[12], 0.01372 µM	0.982
[12], 0.04115 µM	0.956
[12], 0.1235 µM	0.9584
[12], 0.3704 µM	0.874
[12], 1.111 µM	0.833
[12], 3.333 µM	0.795
[12], 10 µM	0.778

O=c1sn(-c2cccc3ccccc23)c(=O)n1Cc1ccccc1 [Tideglusib]
Details	relative viability
[1], 0.00017 µM	1.1
[1], 0.00051 µM	1.09
[1], 0.00152 µM	1.09
[1], 0.00457 µM	1.09
[1], 0.01372 µM	1.09
[1], 0.04115 µM	1.1
[1], 0.1235 µM	1.08
[1], 0.3704 µM	1.05
[1], 1.111 µM	1.07
[1], 3.333 µM	1.07
[1], 10 µM	1.03
[2], 0.00017 µM	1.1
[2], 0.00051 µM	1.12
[2], 0.00152 µM	1.08
[2], 0.00457 µM	1.1
[2], 0.01372 µM	1.08
[2], 0.04115 µM	1.08
[2], 0.1235 µM	1.08
[2], 0.3704 µM	1.04
[2], 1.111 µM	1.07
[2], 3.333 µM	1.04
[2], 10 µM	1.02
[3], 0.00017 µM	1.17
[3], 0.00051 µM	1.19
[3], 0.00152 µM	1.21
[3], 0.00457 µM	1.14
[3], 0.01372 µM	1.16
[3], 0.04115 µM	1.14
[3], 0.1235 µM	1.17
[3], 0.3704 µM	1.11
[3], 1.111 µM	1.16
[3], 3.333 µM	1.09
[3], 10 µM	1.1
[4], 0.00017 µM	1.11
[4], 0.00051 µM	1.112
[4], 0.00152 µM	1.1
[4], 0.00457 µM	1.114
[4], 0.01372 µM	1.12
[4], 0.04115 µM	1.113
[4], 0.1235 µM	1.108
[4], 0.3704 µM	1.1
[4], 1.111 µM	1.075
[4], 3.333 µM	1.08
[4], 10 µM	1.07
[5], 0.00017 µM	1.08
[5], 0.00051 µM	1.12
[5], 0.00152 µM	1.13
[5], 0.00457 µM	1.12
[5], 0.01372 µM	1.14
[5], 0.04115 µM	1.13
[5], 0.1235 µM	1.11
[5], 0.3704 µM	1.1
[5], 1.111 µM	1.1
[5], 3.333 µM	1.12
[5], 10 µM	1.12
[6], 0.00017 µM	1.01
[6], 0.00051 µM	1.03
[6], 0.00152 µM	1.02
[6], 0.00457 µM	1.02
[6], 0.01372 µM	1.02
[6], 0.04115 µM	1.01
[6], 0.1235 µM	1.03
[6], 0.3704 µM	1.01
[6], 1.111 µM	1.01
[6], 3.333 µM	1
[6], 10 µM	0.992
[7], 0.00017 µM	0.972
[7], 0.00051 µM	0.971
[7], 0.00152 µM	0.946
[7], 0.00457 µM	0.968
[7], 0.01372 µM	0.962
[7], 0.04115 µM	0.963
[7], 0.1235 µM	0.959
[7], 0.3704 µM	0.95
[7], 1.111 µM	0.94
[7], 3.333 µM	0.924
[7], 10 µM	0.878
[8], 0.00017 µM	1.08
[8], 0.00051 µM	1.12
[8], 0.00152 µM	1.08
[8], 0.00457 µM	1.1
[8], 0.01372 µM	1.08
[8], 0.04115 µM	1.07
[8], 0.1235 µM	1.05
[8], 0.3704 µM	1.04
[8], 1.111 µM	0.984
[8], 3.333 µM	0.9812
[8], 10 µM	0.918
[9], 0.00017 µM	1.06
[9], 0.00051 µM	1.08
[9], 0.00152 µM	1.07
[9], 0.00457 µM	1.1
[9], 0.01372 µM	1.069
[9], 0.04115 µM	1.07
[9], 0.1235 µM	1.06
[9], 0.3704 µM	1.09
[9], 1.111 µM	1.07
[9], 3.333 µM	1.097
[9], 10 µM	1.02
[10], 0.00017 µM	1.07
[10], 0.00051 µM	1.05
[10], 0.00152 µM	1.08
[10], 0.00457 µM	1.04
[10], 0.01372 µM	1.02
[10], 0.04115 µM	1.05
[10], 0.1235 µM	1.03
[10], 0.3704 µM	0.966
[10], 1.111 µM	1.01
[10], 3.333 µM	0.987
[10], 10 µM	0.827
[11], 0.00017 µM	1.03
[11], 0.00051 µM	1.06
[11], 0.00152 µM	1.09
[11], 0.00457 µM	1.12
[11], 0.01372 µM	1.083
[11], 0.04115 µM	1.08
[11], 0.1235 µM	1.05
[11], 0.3704 µM	1.03
[11], 1.111 µM	1.03
[11], 3.333 µM	0.977
[11], 10 µM	0.923
[12], 0.00017 µM	1.02
[12], 0.00051 µM	1.01
[12], 0.00152 µM	1.02
[12], 0.00457 µM	1.01
[12], 0.01372 µM	0.994
[12], 0.04115 µM	1.02
[12], 0.1235 µM	1.02
[12], 0.3704 µM	0.993
[12], 1.111 µM	1
[12], 3.333 µM	1.01
[12], 10 µM	0.986
